Laboratory results published in PubChem BioAssay (NCI).
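Briefly, cells in 96-well plates were exposed to five compound concentrations for 48 h, and endpoints were estimated by linear interpolation. TGI is the concentration that stops growth completely.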

What was measured:
Assay in all cases: inhibition of tumour cell growth, NCI panel, 48 h
786-0 renal = tested on: 786-0 renal
A498 renal = tested on: A498 renal
A549 NSCLC = tested on: A549 NSCLC
ACHN renal = tested on: ACHN renal
CAKI-1 renal = tested on: CAKI-1 renal
CCRF-CEM leukemia = tested on: CCRF-CEM leukemia
COLO 205 colon = tested on: COLO 205 colon
DLD-1 colon = tested on: DLD-1 colon
DMS 114 small cell lung = tested on: DMS 114 small cell lung
EKVX NSCLC = tested on: EKVX NSCLC
HCC-2998 colon = tested on: HCC-2998 colon
HL-60(TB) leukemia = tested on: HL-60(TB) leukemia
HOP-62 NSCLC = tested on: HOP-62 NSCLC
HOP-92 NSCLC = tested on: HOP-92 NSCLC
HT29 colon = tested on: HT29 colon
IGROV1 ovarian = tested on: IGROV1 ovarian
K-562 leukemia = tested on: K-562 leukemia
KM12 colon = tested on: KM12 colon
LOX IMVI melanoma = tested on: LOX IMVI melanoma
LXFL 529 NSCLC = tested on: LXFL 529 NSCLC
M14 melanoma = tested on: M14 melanoma
M19-MEL melanoma = tested on: M19-MEL melanoma
MALME-3M melanoma = tested on: MALME-3M melanoma
MOLT-4 leukemia = tested on: MOLT-4 leukemia
NCI-H226 lung = tested on: NCI-H226 lung
NCI-H23 lung = tested on: NCI-H23 lung
NCI-H460 lung = tested on: NCI-H460 lung
NCI-H522 lung = tested on: NCI-H522 lung
OVCAR-3 ovarian = tested on: OVCAR-3 ovarian
OVCAR-4 ovarian = tested on: OVCAR-4 ovarian
OVCAR-5 ovarian = tested on: OVCAR-5 ovarian
OVCAR-8 ovarian = tested on: OVCAR-8 ovarian
RPMI-8226 leukemia = tested on: RPMI-8226 leukemia
RXF 393 renal = tested on: RXF 393 renal
SF-268 CNS = tested on: SF-268 CNS
SF-295 CNS = tested on: SF-295 CNS
SF-539 CNS = tested on: SF-539 CNS
SK-MEL-2 melanoma = tested on: SK-MEL-2 melanoma
SK-MEL-28 melanoma = tested on: SK-MEL-28 melanoma
SK-MEL-5 melanoma = tested on: SK-MEL-5 melanoma
SK-OV-3 ovarian = tested on: SK-OV-3 ovarian
SN12C renal = tested on: SN12C renal
SNB-19 CNS = tested on: SNB-19 CNS
SNB-75 CNS = tested on: SNB-75 CNS
SNB-78 CNS = tested on: SNB-78 CNS
SW-620 colon = tested on: SW-620 colon
TK-10 renal = tested on: TK-10 renal
U251 CNS = tested on: U251 CNS
UACC-257 melanoma = tested on: UACC-257 melanoma
UO-31 renal = tested on: UO-31 renal
XF 498 CNS = tested on: XF 498 CNS
DMS 273 small cell lung = tested on: DMS 273 small cell lung
HCT-116 colon = tested on: HCT-116 colon
HCT-15 colon = tested on: HCT-15 colon
HOP-18 NSCLC = tested on: HOP-18 NSCLC
KM20L2 colon = tested on: KM20L2 colon
SR leukemia = tested on: SR leukemia
UACC-62 melanoma = tested on: UACC-62 melanoma

## CCc1ccccc1NC(=O)C1=C(C)NC(C)=C(C(=O)Nc2ccccc2CC)C1c1ccc2c(c1)OCO2
786-0 renal
  TGI: > 100 µM
A498 renal
  TGI: 81.5 µM
A549 NSCLC
  TGI: > 100 µM
ACHN renal
  TGI: 90.7 µM
CAKI-1 renal
  TGI: 88.5 µM
CCRF-CEM leukemia
  TGI: 84.4 µM
COLO 205 colon
  TGI: > 100 µM
DLD-1 colon
  TGI: > 100 µM
DMS 114 small cell lung
  TGI: > 100 µM
EKVX NSCLC
  TGI: > 100 µM
HCC-2998 colon
  TGI: 41 µM
HL-60(TB) leukemia
  TGI: 47.8 µM
HOP-62 NSCLC
  TGI: 59.8 µM
HOP-92 NSCLC
  TGI: 60.1 µM
HT29 colon
  TGI: > 100 µM
IGROV1 ovarian
  TGI: > 100 µM
K-562 leukemia
  TGI: > 100 µM
KM12 colon
  TGI: 50.6 µM
LOX IMVI melanoma
  TGI: 88.7 µM
LXFL 529 NSCLC
  TGI: 98.4 µM
M14 melanoma
  TGI: > 100 µM
M19-MEL melanoma
  TGI: > 100 µM
MALME-3M melanoma
  TGI: 99 µM
MOLT-4 leukemia
  TGI: > 100 µM
NCI-H226 lung
  TGI: 81.4 µM
NCI-H23 lung
  TGI: > 100 µM
NCI-H460 lung
  TGI: > 100 µM
NCI-H522 lung
  TGI: > 100 µM
OVCAR-3 ovarian
  TGI: 84 µM
OVCAR-4 ovarian
  TGI: 92 µM
OVCAR-5 ovarian
  TGI: 82.9 µM
OVCAR-8 ovarian
  TGI: > 100 µM
RPMI-8226 leukemia
  TGI: 49.5 µM
RXF 393 renal
  TGI: 94.1 µM
SF-268 CNS
  TGI: > 100 µM
SF-295 CNS
  TGI: > 100 µM
SF-539 CNS
  TGI: 45.8 µM
SK-MEL-2 melanoma
  TGI: 53.1 µM
SK-MEL-28 melanoma
  TGI: > 100 µM
SK-MEL-5 melanoma
  TGI: > 100 µM
SK-OV-3 ovarian
  TGI: > 100 µM
SN12C renal
  TGI: > 100 µM
SNB-19 CNS
  TGI: > 100 µM
SNB-75 CNS
  TGI: 89.3 µM
SNB-78 CNS
  TGI: > 100 µM
SW-620 colon
  TGI: > 100 µM
TK-10 renal
  TGI: > 100 µM
U251 CNS
  TGI: 97.1 µM
UACC-257 melanoma
  TGI: > 100 µM
UO-31 renal
  TGI: 70.5 µM
XF 498 CNS
  TGI: 70.4 µM

## O=C(CCN(C(=O)O)S(=O)(=O)c1ccc(NC(=O)c2ccccc2)cc1)NC1CCCCC1
786-0 renal
  TGI: 31.7 µM
A498 renal
  TGI: > 100 µM
A549 NSCLC
  TGI: > 100 µM
ACHN renal
  TGI: > 100 µM
CAKI-1 renal
  TGI: > 100 µM
CCRF-CEM leukemia
  TGI: > 100 µM
COLO 205 colon
  TGI: > 100 µM
DLD-1 colon
  TGI: > 100 µM
DMS 114 small cell lung
  TGI: > 100 µM
DMS 273 small cell lung
  TGI: > 100 µM
EKVX NSCLC
  TGI: > 100 µM
HCC-2998 colon
  TGI: > 100 µM
HCT-116 colon
  TGI: > 100 µM
HCT-15 colon
  TGI: > 100 µM
HL-60(TB) leukemia
  TGI: 94.6 µM
HOP-18 NSCLC
  TGI: > 100 µM
HOP-62 NSCLC
  TGI: > 100 µM
HOP-92 NSCLC
  TGI: > 100 µM
HT29 colon
  TGI: 56.8 µM
IGROV1 ovarian
  TGI: > 100 µM
K-562 leukemia
  TGI: > 100 µM
KM12 colon
  TGI: > 100 µM
KM20L2 colon
  TGI: > 100 µM
LOX IMVI melanoma
  TGI: > 100 µM
LXFL 529 NSCLC
  TGI: > 100 µM
M14 melanoma
  TGI: > 100 µM
M19-MEL melanoma
  TGI: > 100 µM
MALME-3M melanoma
  TGI: > 100 µM
MOLT-4 leukemia
  TGI: 45.9 µM
NCI-H226 lung
  TGI: > 100 µM
NCI-H23 lung
  TGI: > 100 µM
NCI-H460 lung
  TGI: > 100 µM
NCI-H522 lung
  TGI: > 100 µM
OVCAR-3 ovarian
  TGI: > 100 µM
OVCAR-4 ovarian
  TGI: > 100 µM
OVCAR-5 ovarian
  TGI: > 100 µM
OVCAR-8 ovarian
  TGI: > 100 µM
RPMI-8226 leukemia
  TGI: 41.8 µM
SF-268 CNS
  TGI: > 100 µM
SF-295 CNS
  TGI: > 100 µM
SF-539 CNS
  TGI: > 100 µM
SK-MEL-2 melanoma
  TGI: > 100 µM
SK-MEL-28 melanoma
  TGI: > 100 µM
SK-MEL-5 melanoma
  TGI: > 100 µM
SK-OV-3 ovarian
  TGI: > 100 µM
SN12C renal
  TGI: > 100 µM
SNB-19 CNS
  TGI: > 100 µM
SNB-75 CNS
  TGI: > 100 µM
SNB-78 CNS
  TGI: > 100 µM
SR leukemia
  TGI: > 100 µM
SW-620 colon
  TGI: 33.1 µM
TK-10 renal
  TGI: > 100 µM
U251 CNS
  TGI: > 100 µM
UACC-257 melanoma
  TGI: > 100 µM
UACC-62 melanoma
  TGI: > 100 µM
UO-31 renal
  TGI: > 100 µM
XF 498 CNS
  TGI: > 100 µM

## CC(SC(=S)N1CCOCC1)c1cc2oc(=O)n(C)c2cc1Cl (stereo not drawn)
786-0 renal
  TGI: > 100 µM
A549 NSCLC
  TGI: > 100 µM
ACHN renal
  TGI: > 100 µM
CAKI-1 renal
  TGI: > 100 µM
CCRF-CEM leukemia
  TGI: > 100 µM
COLO 205 colon
  TGI: > 100 µM
DLD-1 colon
  TGI: > 100 µM
DMS 114 small cell lung
  TGI: > 100 µM
DMS 273 small cell lung
  TGI: > 100 µM
EKVX NSCLC
  TGI: > 100 µM
HCC-2998 colon
  TGI: > 100 µM
HCT-116 colon
  TGI: > 100 µM
HCT-15 colon
  TGI: > 100 µM
HL-60(TB) leukemia
  TGI: > 100 µM
HOP-18 NSCLC
  TGI: > 100 µM
HOP-62 NSCLC
  TGI: > 100 µM
HOP-92 NSCLC
  TGI: > 10 µM
HT29 colon
  TGI: > 100 µM
IGROV1 ovarian
  TGI: > 10 µM
K-562 leukemia
  TGI: > 100 µM
KM12 colon
  TGI: > 100 µM
KM20L2 colon
  TGI: > 100 µM
LOX IMVI melanoma
  TGI: > 100 µM
LXFL 529 NSCLC
  TGI: > 100 µM
M14 melanoma
  TGI: > 100 µM
M19-MEL melanoma
  TGI: > 100 µM
MALME-3M melanoma
  TGI: > 100 µM
MOLT-4 leukemia
  TGI: > 100 µM
NCI-H23 lung
  TGI: > 100 µM
NCI-H460 lung
  TGI: > 100 µM
OVCAR-3 ovarian
  TGI: > 100 µM
OVCAR-4 ovarian
  TGI: > 100 µM
OVCAR-5 ovarian
  TGI: > 100 µM
OVCAR-8 ovarian
  TGI: > 100 µM
RPMI-8226 leukemia
  TGI: > 100 µM
RXF 393 renal
  TGI: > 100 µM
SF-268 CNS
  TGI: > 100 µM
SF-295 CNS
  TGI: > 100 µM
SF-539 CNS
  TGI: > 100 µM
SK-MEL-2 melanoma
  TGI: > 100 µM
SK-MEL-28 melanoma
  TGI: > 100 µM
SK-MEL-5 melanoma
  TGI: > 100 µM
SK-OV-3 ovarian
  TGI: > 100 µM
SN12C renal
  TGI: > 100 µM
SNB-19 CNS
  TGI: > 100 µM
SNB-75 CNS
  TGI: > 100 µM
SNB-78 CNS
  TGI: > 100 µM
SR leukemia
  TGI: > 100 µM
SW-620 colon
  TGI: > 10 µM
TK-10 renal
  TGI: > 100 µM
U251 CNS
  TGI: > 100 µM
UACC-257 melanoma
  TGI: > 100 µM
UACC-62 melanoma
  TGI: > 100 µM
UO-31 renal
  TGI: > 100 µM
XF 498 CNS
  TGI: > 100 µM
